# Test results published in patent US20230349008A1, “PAPER-BASED SAMPLE TESTING DEVICES AND METHODS THEREOF” (CORNELL UNIVERSITY, priority 2020, published 2023).
# Columns and labels:
# E. coli ATCC-25922 [1] = assay: On-chip paper-based antimicrobial susceptibility testing (AST), resazurin colorimetric readout; type: cell-based, Escherichia coli; settings: eight test zones: seven antibiotic concentrations plus no-antibiotic control; overnight 37° C.; 5×10^5 CFU/mL; hue threshold
# From the text: (§1) To functionalize the chips for AST, antibiotics and the growth-sensitive dye resazurin were pre-dried on the chip to enable testing with a single sample addition step. Antibiotics used consisted of ampicillin, meropenem, gentamicin, and ciprofloxacin (all sourced from MilliporeSigma). The growth-sensitive dye resazurin (PrestoBlue, Thermo Fisher) is a redox indicator that is reduced by metabolically active cells into resorufin, leading to significant colorimetric and fluorescent changes which provide a visual indication of bacterial growth as disclosed in Guerin, et al., “Application of resazurin for estimating abundance of contaminant-degrading micro-organisms,” Lett. Appl. […] Using a spectrophotometer (V-1200, VWR), the OD625 nm absorbance corresponding to a 0.5 McFarland standard was verified to be in the range of 0.08-0.13 22. […] To quantitatively analyze color change in the test zones following incubation, test chips were imaged using a smartphone and analyzed in MATLAB (MathWorks). Images were analyzed in the hue, saturation, value (HSV) color-space which we determined to be less sensitive to lighting conditions compared to the red, blue, green (RGB) color-space. For each test zone, the average hue value in a 160-pixel diameter circular region was calculated and a threshold was used to differentiate between zones with reduced (growth) and unreduced (no growth) resazurin. […]
# E. coli BAA-2452 [2] = assay: as above; type: cell-based, Escherichia coli; settings: eight test zones: seven antibiotic concentrations plus no-antibiotic control; overnight 37° C.; 5×10^5 CFU/mL; hue threshold
# From the text: as §1
# E. coli BAA-2452 [3] = settings: vendor MIC interpretation; cited from earlier work
# E. coli ATCC-25922 [4] = settings: vendor MIC interpretation; cited from earlier work
compound,measurement,setting,value
CC1(C)S[C@@H]2[C@H](NC(=O)[C@H](N)c3ccccc3)C(=O)N2[C@H]1C(=O)O [ampicillin],"number of positive test zones (reduced resazurin, uninhibited growth)",E. coli ATCC-25922 [1],no-antibiotic control positive only
same,"number of positive test zones (reduced resazurin, uninhibited growth)",E. coli BAA-2452 [2],six
same,susceptibility category via off-chip AST,E. coli BAA-2452 [3],resistant
same,susceptibility category via off-chip AST,E. coli ATCC-25922 [4],susceptible
